Experimental data as given in US20250127162A1, “METHODS AND COMPOSITIONS FOR CONTROLLING PESTS IN RICE” (Globachem NV, priority 2022, published 2025).

System: Chilo suppressalis
Test: Rice field trials, Chilo suppressalis insect damage / white heads (Example 1, Trials 3-4, Thailand)
Type: in vivo
Conditions: Trial 3
Experimental: All applications were made with an EC formulation containing 650 g/L of pelargonic acid (e.g., 685 g/L of 95% purity pelargonic acid), an anionic emulsifier and a branched fatty acid ester solvent. […] Trials 1 4 assessing the use of pelargonic acid for controlling Chilo suppressalis in rice were conducted in Spain and Thailand. Application A was made to the crops at the beginning of infestations; for these trials, Stage BBCH 59; Application B was made 14 days after Application A. Trial 3 was conducted in Thailand using a water volume of 500 L/ha of water per application unless otherwise indicated. Insect Damage ([…] %), Insect Damage (Number) and Phytotoxicity were assessed at various treatment evaluation intervals. Population levels were recorded by counting number of rice plants per hill, number of white head (damage from rice stem borer) followed by calculation of % insect damage. Trial 4 was conducted in Thailand using a water volume of 500 L/ha of water per application unless otherwise indicated. Insect Damage ([…] %), Insect Damage (Number) and Phytotoxicity were assessed at various treatment evaluation intervals. Population levels were recorded by counting number of rice plants per hill, number of white head (damage from rice stem borer) followed by calculation of % insect damage.

[1] = 0 DAA, water volume 500 L/ha, rate in treatment name, Prevathon 0.5 L/ha, listed as PA 585 g/ha
[2] = 0 DAA, water volume 500 L/ha, rate in treatment name, Prevathon 0.5 L/ha, listed as PA 975 g/ha
[3] = 0 DAA, water volume 500 L/ha, rate in treatment name, Prevathon 0.5 L/ha, listed as PA 1300 g/ha
[4] = 0 DAA, water volume 500 L/ha, rate in treatment name, Prevathon 0.5 L/ha, listed as PA 2600 g/ha
[5] = 0 DAB, water volume 500 L/ha, rate in treatment name, Prevathon 0.5 L/ha, listed as PA 585 g/ha
[6] = 0 DAB, water volume 500 L/ha, rate in treatment name, Prevathon 0.5 L/ha, listed as PA 975 g/ha
[7] = 0 DAB, water volume 500 L/ha, rate in treatment name, Prevathon 0.5 L/ha, listed as PA 1300 g/ha
[8] = 0 DAB, water volume 500 L/ha, rate in treatment name, Prevathon 0.5 L/ha, listed as PA 2600 g/ha
[9] = 7 DAA, water volume 500 L/ha, rate in treatment name, Prevathon 0.5 L/ha, listed as PA 585 g/ha
[10] = 7 DAA, water volume 500 L/ha, rate in treatment name, Prevathon 0.5 L/ha, listed as PA 975 g/ha
[11] = 7 DAA, water volume 500 L/ha, rate in treatment name, Prevathon 0.5 L/ha, listed as PA 1300 g/ha
[12] = 7 DAA, water volume 500 L/ha, rate in treatment name, Prevathon 0.5 L/ha, listed as PA 2600 g/ha
[13] = 7 DAB, water volume 500 L/ha, rate in treatment name, Prevathon 0.5 L/ha, listed as PA 585 g/ha
[14] = 7 DAB, water volume 500 L/ha, rate in treatment name, Prevathon 0.5 L/ha, listed as PA 975 g/ha
[15] = 7 DAB, water volume 500 L/ha, rate in treatment name, Prevathon 0.5 L/ha, listed as PA 1300 g/ha
[16] = 7 DAB, water volume 500 L/ha, rate in treatment name, Prevathon 0.5 L/ha, listed as PA 2600 g/ha
[17] = 10 DAA, water volume 500 L/ha, rate in treatment name, Prevathon 0.5 L/ha, listed as PA 585 g/ha
[18] = 10 DAA, water volume 500 L/ha, rate in treatment name, Prevathon 0.5 L/ha, listed as PA 975 g/ha
[19] = 10 DAA, water volume 500 L/ha, rate in treatment name, Prevathon 0.5 L/ha, listed as PA 1300 g/ha
[20] = 10 DAA, water volume 500 L/ha, rate in treatment name, Prevathon 0.5 L/ha, listed as PA 2600 g/ha
[21] = 10 DAB, water volume 500 L/ha, rate in treatment name, Prevathon 0.5 L/ha, listed as PA 585 g/ha
[22] = 10 DAB, water volume 500 L/ha, rate in treatment name, Prevathon 0.5 L/ha, listed as PA 975 g/ha
[23] = 10 DAB, water volume 500 L/ha, rate in treatment name, Prevathon 0.5 L/ha, listed as PA 1300 g/ha
[24] = 10 DAB, water volume 500 L/ha, rate in treatment name, Prevathon 0.5 L/ha, listed as PA 2600 g/ha
[25] = 14 DAB, water volume 500 L/ha, rate in treatment name, Prevathon 0.5 L/ha, listed as PA 585 g/ha
[26] = 14 DAB, water volume 500 L/ha, rate in treatment name, Prevathon 0.5 L/ha, listed as PA 975 g/ha
[27] = 14 DAB, water volume 500 L/ha, rate in treatment name, Prevathon 0.5 L/ha, listed as PA 1300 g/ha
[28] = 14 DAB, water volume 500 L/ha, rate in treatment name, Prevathon 0.5 L/ha, listed as PA 2600 g/ha
[29] = 21 DAB, water volume 500 L/ha, rate in treatment name, Prevathon 0.5 L/ha, listed as PA 585 g/ha
[30] = 21 DAB, water volume 500 L/ha, rate in treatment name, Prevathon 0.5 L/ha, listed as PA 975 g/ha
[31] = 21 DAB, water volume 500 L/ha, rate in treatment name, Prevathon 0.5 L/ha, listed as PA 1300 g/ha

CCCCCCCCC(=O)O [PA 650 g/ha, pelargonic acid]
DAMINS % (insect damage, % white heads) (0 DAA, water volume 200 L/ha): 0.83%
DAMINS (number): mean number of insect damage (white head symptoms) (0 DAA, water volume 200 L/ha): 3.4
DAMINS % (insect damage, % white heads) [1]: 0.79%
DAMINS (number): mean number of insect damage (white head symptoms) [1]: 3.23
DAMINS % (insect damage, % white heads) [2]: 0.9%
DAMINS (number): mean number of insect damage (white head symptoms) [2]: 3.8
DAMINS % (insect damage, % white heads) [3]: 0.75%
DAMINS (number): mean number of insect damage (white head symptoms) [3]: 3.11
DAMINS % (insect damage, % white heads) [4]: 0.74%
DAMINS (number): mean number of insect damage (white head symptoms) [4]: 3.14
DAMINS % (insect damage, % white heads) (0 DAB, water volume 200 L/ha): 0.25%
DAMINS (number): mean number of insect damage (white head symptoms) (0 DAB, water volume 200 L/ha): 0.94
DAMINS % (insect damage, % white heads) [5]: 0.6%
DAMINS (number): mean number of insect damage (white head symptoms) [5]: 2.54
DAMINS % (insect damage, % white heads) [6]: 0.46%
DAMINS (number): mean number of insect damage (white head symptoms) [6]: 1.91
DAMINS % (insect damage, % white heads) [7]: 0.39%
DAMINS (number): mean number of insect damage (white head symptoms) [7]: 1.61
DAMINS % (insect damage, % white heads) [8]: 0.29%
DAMINS (number): mean number of insect damage (white head symptoms) [8]: 1.23
DAMINS % (insect damage, % white heads) (7 DAA, water volume 200 L/ha): 0.29%
DAMINS (number): mean number of insect damage (white head symptoms) (7 DAA, water volume 200 L/ha): 1.16
DAMINS % (insect damage, % white heads) [9]: 0.65%
DAMINS (number): mean number of insect damage (white head symptoms) [9]: 2.93
DAMINS % (insect damage, % white heads) [10]: 0.53%
DAMINS (number): mean number of insect damage (white head symptoms) [10]: 2.13
DAMINS % (insect damage, % white heads) [11]: 0.4%
DAMINS (number): mean number of insect damage (white head symptoms) [11]: 1.74
DAMINS % (insect damage, % white heads) [12]: 0.39%
DAMINS (number): mean number of insect damage (white head symptoms) [12]: 1.79
DAMINS % (insect damage, % white heads) (7 DAB, water volume 200 L/ha): 0.55%
DAMINS (number): mean number of insect damage (white head symptoms) (7 DAB, water volume 200 L/ha): 2.4
DAMINS % (insect damage, % white heads) [13]: 0.84%
DAMINS (number): mean number of insect damage (white head symptoms) [13]: 3.82
DAMINS % (insect damage, % white heads) [14]: 0.73%
DAMINS (number): mean number of insect damage (white head symptoms) [14]: 3.31
DAMINS % (insect damage, % white heads) [15]: 0.64%
DAMINS (number): mean number of insect damage (white head symptoms) [15]: 2.84
DAMINS % (insect damage, % white heads) [16]: 0.49%
DAMINS (number): mean number of insect damage (white head symptoms) [16]: 2.24
DAMINS % (insect damage, % white heads) (10 DAA, water volume 200 L/ha): 0.25%
DAMINS (number): mean number of insect damage (white head symptoms) (10 DAA, water volume 200 L/ha): 0.99
DAMINS % (insect damage, % white heads) [17]: 0.63%
DAMINS (number): mean number of insect damage (white head symptoms) [17]: 2.92
DAMINS % (insect damage, % white heads) [18]: 0.58%
DAMINS (number): mean number of insect damage (white head symptoms) [18]: 2.26
DAMINS % (insect damage, % white heads) [19]: 0.41%
DAMINS (number): mean number of insect damage (white head symptoms) [19]: 1.77
DAMINS % (insect damage, % white heads) [20]: 0.31%
DAMINS (number): mean number of insect damage (white head symptoms) [20]: 1.49
DAMINS % (insect damage, % white heads) (10 DAB, water volume 200 L/ha): 0.44%
DAMINS (number): mean number of insect damage (white head symptoms) (10 DAB, water volume 200 L/ha): 1.84
DAMINS % (insect damage, % white heads) [21]: 0.71%
DAMINS (number): mean number of insect damage (white head symptoms) [21]: 3.39
DAMINS % (insect damage, % white heads) [22]: 0.66%
DAMINS (number): mean number of insect damage (white head symptoms) [22]: 3.11
DAMINS % (insect damage, % white heads) [23]: 0.38%
DAMINS (number): mean number of insect damage (white head symptoms) [23]: 1.65
DAMINS % (insect damage, % white heads) [24]: 0.33%
DAMINS (number): mean number of insect damage (white head symptoms) [24]: 1.39
DAMINS % (insect damage, % white heads) (14 DAB, water volume 200 L/ha): 0.39%
DAMINS (number): mean number of insect damage (white head symptoms) (14 DAB, water volume 200 L/ha): 1.53
DAMINS % (insect damage, % white heads) [25]: 0.56%
DAMINS (number): mean number of insect damage (white head symptoms) [25]: 2.35
DAMINS % (insect damage, % white heads) [26]: 0.64%
DAMINS (number): mean number of insect damage (white head symptoms) [26]: 2.82
DAMINS % (insect damage, % white heads) [27]: 0.45%
DAMINS (number): mean number of insect damage (white head symptoms) [27]: 1.94
DAMINS % (insect damage, % white heads) [28]: 0.3%
DAMINS (number): mean number of insect damage (white head symptoms) [28]: 1.25
DAMINS % (insect damage, % white heads) (21 DAB, water volume 200 L/ha): 0.36%
DAMINS (number): mean number of insect damage (white head symptoms) (21 DAB, water volume 200 L/ha): 1.47
DAMINS % (insect damage, % white heads) [29]: 0.8%
DAMINS (number): mean number of insect damage (white head symptoms) [29]: 3.41
DAMINS % (insect damage, % white heads) [30]: 0.6%
DAMINS (number): mean number of insect damage (white head symptoms) [30]: 2.7
DAMINS % (insect damage, % white heads) [31]: 0.39%
DAMINS (number): mean number of insect damage (white head symptoms) [31]: 1.64
